Assays:
[1] = tested on: control sera (pooled serum of ten healthy LUMC hospital workers; commercial negative donor pooled serum from the Dutch bloodbank); format: binding, human; set-up: Binding of Control serum LUMC to linear peptides / Binding of Control serum Blood-bank to linear peptides / Binding of Control serum LUMC to looped peptides / Binding of Control Serum Blood-Bank to Looped peptides / Binding of Control serum LUMC to linear peptides of the protein M of SARS-CoV Urbani / Binding of Control serum Blood-bank to linear peptides of the protein M of SARS-CoV Urbani / Binding of Control serum LUMC to looped peptides of the protein M of SARS-CoV Urbani / Binding of Control Serum Blood-Bank to Looped peptides of the protein M of SARS-CoV Urbani: unit not given here
[2] = tested on: antibodies in sera from SARS patients (sera 1a, 1b, 2, 6, 37, 62, London, SARS-yellow, SARS-green); format: binding, human; set-up: Binding of serum 6 to linear peptides of protein X1 of SARS-CoV Urbani / Binding of serum 37 to linear peptides of protein X1 of SARS-CoV Urbani / Binding of serum 6 to looped/cyclic peptide (PEPSCAN-ELISA) / Binding of serum 37 to looped/cyclic peptide (PEPSCAN-ELISA) / Binding of serum 37 to looped/cyclic peptides of protein X1 of SARS-CoV Urbani / Binding of serum 6 to linear peptides of protein X2 / Binding of serum 37 to linear peptides of protein X2 / Binding of serum 37 to looped/cyclic peptides of protein X2 of SARS-CoV Urbani / Binding of serum 6 to linear peptides of protein M of SARS-CoV Urbani / Binding of serum 37 to linear peptides of protein M of SARS-CoV Urbani / Binding of serum 6 to looped/cyclic peptides of protein M of SARS-CoV Urbani / Binding of serum 37 to looped/cyclic peptides of protein M of SARS-CoV Urbani / Binding of serum 6 to linear peptides of protein X3 of SARS-CoV Urbani / Binding of serum 37 to linear peptides of protein X3 of SARS-CoV Urbani / Binding of serum 37 to looped/cyclic peptides of protein X3 of SARS-CoV Urbani / Binding of serum 6 to linear peptides of protein X4 of SARS-CoV Urbani / Binding of serum 37 to linear peptides of protein X4 of SARS-CoV Urbani / Binding of serum 37 to looped/cyclic peptides of protein X4 of SARS-CoV Urbani / Binding of serum 6 to linear peptides of protein X5 of SARS-CoV Urbani / Binding of serum 37 to linear peptides of protein X5 of SARS-CoV Urbani / Binding of serum 37 to looped/cyclic peptides of protein X5 of SARS-CoV Urbani / Binding of serum 6 to linear peptides of protein N of SARS-CoV Urbani / Binding of serum 37 to linear peptides of protein N of SARS-CoV Urbani / Binding of serum 6 to linear peptide (PEPSCAN-ELISA) / Binding of serum 1a to looped/cyclic peptides of protein N of SARS-CoV Urbani / Binding of serum 1b to looped/cyclic peptides of protein N of SARS-CoV Urbani / Binding of serum 2 to looped/cyclic peptides of protein N of SARS-CoV Urbani / Binding of serum 6 to looped/cyclic peptides of protein N of SARS-CoV Urbani / Binding of serum 37 to looped/cyclic peptides of protein N of SARS-CoV Urbani / Binding of serum 62 to looped/cyclic peptides of protein N of SARS-CoV Urbani / Binding of serum London to looped/cyclic peptides of protein N of SARS-CoV Urbani / Binding of serum SARS-green to looped/cyclic peptides of protein N of SARS-CoV Urbani: unit not given here
[3] = tested on: rabbit serum obtained by immunizing a rabbit with the SARS-CoV strain Frankfurt 1; format: binding; set-up: Binding of a rabbit serum to linear peptides / Binding of a rabbit serum to looped peptides / Rabbit serum linear peptides / Rabbit serum looped peptides / Binding of a rabbit serum to linear peptides of protein N of SARS-CoV Urbani (Rabbit serum linear peptides) / Binding of a rabbit serum to looped/cyclic peptides of protein N of SARS-CoV Urbani (Rabbit serum looped peptides): unit not given here

CNLLLLFVTIYSHLL
0.5: Binding of Control Serum Blood-Bank to Looped peptides [1] | Binding of Control serum LUMC to looped peptides [1] | Binding of serum 1a to looped/cyclic peptide (PEPSCAN-ELISA) [2] | Binding of serum 1b to linear peptides of protein X1 of SARS-CoV Urbani [2] | Binding of serum 2 to linear peptides of protein X1 of SARS-CoV Urbani [2] | Binding of serum 37 to looped/cyclic peptide (PEPSCAN-ELISA) [2] | Binding of serum 62 to looped/cyclic peptide (PEPSCAN-ELISA) [2]
0.6: Binding of serum 37 to linear peptides of protein X1 of SARS-CoV Urbani [2] | Binding of a rabbit serum to looped peptides [3]
0.3: Binding of serum 6 to looped/cyclic peptide (PEPSCAN-ELISA) [2]
0.2: Binding of serum London to linear peptides of protein X1 of SARS-CoV Urbani [2] | Binding of serum London to looped/cyclic peptide (PEPSCAN-ELISA) [2] | Binding of serum SARS-green to looped/cyclic peptide (PEPSCAN-ELISA) [2]
0.7: Binding of serum 1a to linear peptides of protein X1 of SARS-CoV Urbani [2]
0.4: Binding of Control serum Blood-bank to linear peptides [1] | Binding of Control serum LUMC to linear peptides [1] | Binding of serum 1b to looped/cyclic peptide (PEPSCAN-ELISA) [2] | Binding of serum 2 to looped/cyclic peptide (PEPSCAN-ELISA) [2] | Binding of serum 6 to linear peptides of protein X1 of SARS-CoV Urbani [2] | Binding of serum 62 to linear peptides of protein X1 of SARS-CoV Urbani [2] | Binding of serum SARS-yellow to linear peptides of protein X1 of SARS-CoV Urbani [2] | Binding of serum SARS-yellow to looped/cyclic peptide (PEPSCAN-ELISA) [2]
0.1: Binding of serum SARS-green to linear peptides of protein X1 of SARS-CoV Urbani [2] | Binding of a rabbit serum to linear peptides [3]

CTPNVTINCQDPAGG
0.3: Binding of Control serum LUMC to linear peptides [1] | Binding of serum 2 to looped/cyclic peptides of protein X5 of SARS-CoV Urbani [2] | Binding of serum 6 to looped/cyclic peptides of protein X5 of SARS-CoV Urbani [2] | Binding of serum 62 to looped/cyclic peptides of protein X5 of SARS-CoV Urbani [2]
0.7: Binding of Control serum Blood-bank to linear peptides [1] | Binding of serum 37 to linear peptides of protein X5 of SARS-CoV Urbani [2] | Binding of serum 62 to linear peptides of protein X5 of SARS-CoV Urbani [2]
0.2: Binding of serum London to looped/cyclic peptides of protein X5 of SARS-CoV Urbani [2]
0.6: Binding of serum 1a to looped/cyclic peptides of protein X5 of SARS-CoV Urbani [2] | Binding of serum 2 to linear peptides of protein X5 of SARS-CoV Urbani [2] | Binding of serum 6 to linear peptides of protein X5 of SARS-CoV Urbani [2]
1.0: Binding of serum 1a to linear peptides of protein X5 of SARS-CoV Urbani [2]
0.0: Binding of serum SARS-yellow to linear peptides of protein X5 of SARS-CoV Urbani [2] | Rabbit serum looped peptides [3]
0.5: Binding of serum SARS-green to linear peptides of protein X5 of SARS-CoV Urbani [2]
0.8: Binding of serum 1b to linear peptides of protein X5 of SARS-CoV Urbani [2] | Binding of serum 1b to looped/cyclic peptides of protein X5 of SARS-CoV Urbani [2] | Binding of serum London to linear peptides of protein X5 of SARS-CoV Urbani [2]
0.4: Binding of Control Serum Blood-Bank to Looped peptides [1] | Binding of Control serum LUMC to looped peptides [1] | Binding of serum 37 to looped/cyclic peptides of protein X5 of SARS-CoV Urbani [2] | Binding of serum SARS-green to looped/cyclic peptides of protein X5 of SARS-CoV Urbani [2] | Binding of serum SARS-yellow to looped/cyclic peptides of protein X5 of SARS-CoV Urbani [2] | Rabbit serum linear peptides [3]

CTSTHFAFACADGTR
0.7: Binding of Control serum Blood-bank to linear peptides [1] | Binding of Control serum LUMC to looped peptides [1] | Binding of serum 1a to linear peptides of protein X4 of SARS-CoV Urbani [2] | Binding of serum 1a to looped/cyclic peptides of protein X4 of SARS-CoV Urbani [2] | Binding of serum 1b to linear peptides of protein X4 of SARS-CoV Urbani [2] | Binding of serum 37 to linear peptides of protein X4 of SARS-CoV Urbani [2] | Binding of serum 37 to looped/cyclic peptides of protein X4 of SARS-CoV Urbani [2] | Binding of serum 62 to looped/cyclic peptides of protein X4 of SARS-CoV Urbani [2] | Binding of serum London to linear peptides of protein X4 of SARS-CoV Urbani [2]
0.5: Binding of serum 2 to linear peptides of protein X4 of SARS-CoV Urbani [2]
0.6: Binding of serum 2 to looped/cyclic peptides of protein X4 of SARS-CoV Urbani [2] | Binding of serum 6 to linear peptides of protein X4 of SARS-CoV Urbani [2] | Binding of serum 6 to looped/cyclic peptides of protein X4 of SARS-CoV Urbani [2] | Binding of serum SARS-green to linear peptides of protein X4 of SARS-CoV Urbani [2] | Rabbit serum looped peptides [3]
0.4: Binding of serum 1b to looped/cyclic peptides of protein X4 of SARS-CoV Urbani [2] | Binding of serum SARS-green to looped/cyclic peptides of protein X4 of SARS-CoV Urbani [2] | Binding of serum SARS-yellow to linear peptides of protein X4 of SARS-CoV Urbani [2] | Rabbit serum linear peptides [3]
1.0: Binding of serum SARS-yellow to looped/cyclic peptides of protein X4 of SARS-CoV Urbani [2]
0.8: Binding of Control Serum Blood-Bank to Looped peptides [1] | Binding of Control serum LUMC to linear peptides [1] | Binding of serum 62 to linear peptides of protein X4 of SARS-CoV Urbani [2]
0.3: Binding of serum London to looped/cyclic peptides of protein X4 of SARS-CoV Urbani [2]

From US20070128217A1 (priority 2003, published 2007)
